The text below walks through data of patent publication US10821115B2, “Compounds that inhibit Mcl-1 protein” (priority 2017, dated 2020).

Assay [1] concerns human multiple myeloma cell line, OPM-2. The assay can be described thus: Cell viability assay (OPM-2 10 FBS), CellTiter-Glo. In kind it is cell-based. Put shortly: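 Serially diluted test compounds are incubated 16 h with cells (3000/well) in RPMI 1640 supplemented with 10% FBS. Viability is then measured by luminescence and IC50 calculated by 4-parameter logistic fit.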
Assay [2] concerns the target recombinant human Mcl-1 (residues 171-327) / Bim interaction (Homo sapiens (Human), UniProt Q07820). As to the kind of experiment: biochemical. It counts as binding. As to conditions: read-out: Mcl-1 HTRF IC50. In general terms: Time-resolved FRET reads energy transfer from a long-lived donor to a nearby acceptor.
The mark [3] stands for this setting: read-out: OPM-2 10% FBS IC50 IP, OPM-2 cells, 10% FBS, 16 h, CellTiter-Glo.
Where [4] appears, read: TR-FRET, Mcl-1(171-327) / biotin-Bim (51-76).
Setting [5] is: Homo sapiens, OPM-2, 16 h, read-out: OPM-2 10% FBS IC50 IP, OPM-2 cells, 10% FBS, 16 h, CellTiter-Glo.
[6] abbreviates: Homo sapiens, OPM-2, 16 h, read-out: OPM-2 10% FBS IC50 IP, OPM-2 cells, 10% FBS, 16 h incubation.
Setting [7] is: 0.1 nM Mcl-1(171-327), 0.05 nM biotin-Bim (51-76).
Where [8] appears, read: read-out: OPM-2 10% FBS IC50 IP, OPM-2 cells, 10% FBS, 16 h incubation.

Where two headings read alike, the source gives them in different places.

Sequence of recombinant human Mcl-1 (residues 171-327) / Bim interaction (Q07820 171-327): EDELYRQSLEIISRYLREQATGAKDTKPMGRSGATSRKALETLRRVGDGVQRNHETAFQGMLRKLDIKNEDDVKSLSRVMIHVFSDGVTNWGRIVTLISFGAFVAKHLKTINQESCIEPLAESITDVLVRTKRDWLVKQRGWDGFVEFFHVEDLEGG

As a reminder, the IC50 is the point on the concentration scale where inhibition reaches its midpoint. On to `C[C@@H]1[C@@H](C)C/C=C/[C@](O)(c2cccnc2F)[C@@H]2CC[C@H]2CN2C[C@@]3(CCCc4cc(Cl)ccc43)COc3ccc(cc32)C(=O)NS1(=O)=O` (single isomer, unassigned) [Example 100313], for which the IC50 in assay [1] (setting [3]) was 143 nM; in assay [2] (setting [4]) it was 0.129 nM.
For `C[C@@H]1[C@@H](C)CCC[C@@](C)(O)[C@@H]2CC[C@H]2CN2C[C@@]3(CCCc4cc(Cl)ccc43)COc3ccc(cc32)C(=O)NS1(=O)=O` (single isomer, unassigned) [Example 100048], the IC50 in assay [1] (setting [5]) worked out at 551 nM; in assay [2] (setting [4]) it was 0.187 nM.
Regarding `C[C@@H]1[C@@H](C)C/C=C/[C@](O)(C(C)(C)C#N)[C@@H]2CC[C@H]2CN2C[C@@]3(CCCc4cc(Cl)ccc43)COc3ccc(cc32)C(=O)NS1(=O)=O` [Example 100059, 2-((1S,3′R,6′R,7′R,8′E,11′S,12′R)-6-chloro-7′-hydroxy-11′,12′-dimethyl-13′,13′-dioxido-15′-oxo-3,4-dihydro-2H-spiro[naphthalene-1,22′-[20]oxa[13]thia[1,14]diazatetracyclo [14.7.2.0~3,6~.0~19,24~]pentacosa[8,16,18,24]tetraen]-7′-yl)-2-methylpropanenitrile], the results for the IC50 in assay [1] (setting [5]) and in assay [2] (setting [4]) were 3450 nM and 11.9 nM, respectively.
On the same counts, the results for `C[C@@H]1[C@@H](C)C/C=C/[C@@](O)(CC(=O)N(C)c2ccccc2)[C@@H]2CC[C@H]2CN2C[C@@]3(CCCc4cc(Cl)ccc43)COc3ccc(cc32)C(=O)NS1(=O)=O` [Example 100247, 2-((1S,3′R,6′R,7′S,8′E,11′S,12′R)-6-chloro-7′-hydroxy-11′,12′-dimethyl-13′,13′-dioxido-15′-oxo-3,4-dihydro-2H-spiro[naphthalene-1,22′-[20]oxa[13]thia[1,14]diazatetracyclo [14.7.2.0~3,6~.0~19,24~]pentacosa[8,16,18,24]tetraen]-7′-yl)-N-methyl-N-phenylacetamide] are 624 nM and 0.542 nM.
Regarding `CO[C@@]1(CN2CCN(c3ccncc3)CC2)/C=C/C[C@H](C)[C@@H](C)S(=O)(=O)NC(=O)c2ccc3c(c2)N(C[C@@H]2CC[C@H]21)C[C@@]1(CCCc2cc(Cl)ccc21)CO3` [Example 254, (1S,3′R,6′R,7′S,8′E,11′S,12′R)-6-chloro-7′-methoxy-11′,12′-dimethyl-7′-((4-(4-pyridinyl)-1-piperazinyl)methyl)-3,4-dihydro-2H,15′H-spiro[naphthalene-1,22′-[20]oxa[13]thia[1,14]diazatetracyclo [14.7.2.0~3,6~.0~19,24~]pentacosa[8,16,18,24]tetraen]-15′-one 13′,13′-dioxide], the IC50 in assay [1] (setting [6]) worked out at 544 nM; in assay [2] (setting [7]) it was 1.2 nM.
Consider `C[C@@H]1[C@@H](C)C/C=C/[C@]2(CN3CCN(C)C[C@@H]3CO2)[C@@H]2CC[C@H]2CN2C[C@@]3(CCCc4cc(Cl)ccc43)COc3ccc(cc32)C(=O)NS1(=O)=O` (single isomer, unassigned) [Example 132], for which the half-maximal inhibitory concentration (IC50) in assay [1] (setting [8]) is 263 nM; in assay [2] (setting [7]), 0.613 nM.
For `CO[C@@]1(CN2CCn3ccnc3C2)/C=C/C[C@H](C)[C@@H](C)S(=O)(=O)NC(=O)c2ccc3c(c2)N(C[C@@H]2CC[C@H]21)C[C@@]1(CCCc2cc(Cl)ccc21)CO3` [Example 201, (1S,3′R,6′R,7′S,8′E,11′S,12′R)-6-chloro-7′-(5,6-dihydroimidazo[1,2-a]pyrazin-7(8H)-ylmethyl)-7′-methoxy-11′,12′-dimethyl-3,4-dihydro-2H,15′H-spiro[naphthalene-1,22′-[20]oxa[13]thia[1,14]diazatetracyclo [14.7.2.0~3,6~.0~19,24~]pentacosa[8,16,18,24]tetraen]-15′-one 13′,13′-dioxide], the half-maximal inhibitory concentration (IC50) in assay [1] (setting [6]) was found to be 244 nM; in assay [2] (setting [7]) it was 0.119 nM.
Consider `COCC[C@@H]1[C@@H](C)C/C=C/[C@](OC)(C2SCCCS2)[C@@H]2CC[C@H]2CN2C[C@@]3(CCCc4cc(Cl)ccc43)COc3ccc(cc32)C(=O)NS1(=O)=O` [Example 100515, (1S,3′R,6′R,7′R,8′E,11′S,12′R)-6-chloro-7′-(1,3-dithian-2-yl)-7′-methoxy-12′-(2-methoxyethyl)-11′-methyl-3,4-dihydro-2H,15′H-spiro[naphthalene-1,22′-[20]oxa[13]thia[1,14]diazatetracyclo [14.7.2.0~3,6~.0~19,24~]pentacosa[8,16,18,24]tetraen]-15′-one 13′,13′-dioxide], for which the IC50 is 585 nM in assay [1] (setting [5]) and 0.132 nM in assay [2] (setting [4]).
Regarding `CCO[C@]1(CN2CCN3CCS(=O)(=O)C[C@@H]3C2)/C=C/C[C@H](C)[C@@H](C)S(=O)(=O)NC(=O)c2ccc3c(c2)N(C[C@@H]2CC[C@H]21)C[C@@]1(CCCc2cc(Cl)ccc21)CO3` [Example 121], the IC50 worked out at 120 nM in assay [1] (setting [8]) and 0.084 nM in assay [2] (setting [7]).
As for `CO[C@@]1(CCN2CCOCC2)/C=C/C[C@H](C)[C@@H](C)S(=O)(=O)NC(=O)c2ccc3c(c2)N(C[C@@H]2CC[C@H]21)C[C@@]1(CCCc2cc(Cl)ccc21)CO3` [Example 100419, (1S,3′R,6′R,7′S,8′E,11′S,12′R)-6-chloro-7′-methoxy-11′,12′-dimethyl-7′-(2-(4-morpholinyl)ethyl)-3,4-dihydro-2H,15′H-spiro[naphthalene-1,22′-[20]oxa[13]thia[1,14]diazatetracyclo [14.7.2.0~3,6~.0~19,24~]pentacosa[8,16,18,24]tetraen]-15′-one 13′,13′-dioxide], the IC50 in assay [1] (setting [5]) worked out at 416 nM; in assay [2] (setting [4]), 0.277 nM.
Turning to `C[C@@H]1[C@@H](C)C/C=C/[C@@](O)(c2ccc(F)cn2)[C@@H]2CC[C@H]2CN2C[C@@]3(CCCc4cc(Cl)ccc43)COc3ccc(cc32)C(=O)NS1(=O)=O` (single isomer, unassigned) [Example 100402], the IC50 in assay [1] (setting [5]) came to 133 nM; in assay [2] (setting [4]) it was 0.098 nM.
As to `C[C@@H]1[C@@H](C)C/C=C/[C@@](O)(C#CCO)[C@@H]2CC[C@H]2CN2C[C@@]3(CCCc4cc(Cl)ccc43)COc3ccc(cc32)C(=O)NS1(=O)=O` [Example 100394, (1S,3′R,6′R,7′S,8′E,11′S,12′R)-6-chloro-7′-hydroxy-7′-(3-hydroxy-1-propyn-1-yl)-11′,12′-dimethyl-3,4-dihydro-2H,15′H-spiro[naphthalene-1,22′-[20]oxa[13]thia[1,14]diazatetracyclo [14.7.2.0~3,6~.0~19,24~]pentacosa[8,16,18,24]tetraen]-15′-one 13′,13′-dioxide], the figures for the 50% inhibitory concentration (IC50) in assay [1] (setting [3]) and in assay [2] (setting [4]) were 622 nM and 0.242 nM, respectively.
For the compound `C=CC[C@]1(OC)/C=C/C[C@H](C)[C@@H](C)S(=O)(=O)NC(=O)c2ccc3c(c2)N(C[C@@H]2CC[C@H]21)C[C@@]1(CCCc2cc(Cl)ccc21)CO3` [Example 100397, (1S,3′R,6′R,7′S,8′E,11′S,12′R)-6-chloro-7′-methoxy-11′,12′-dimethyl-7′-(2-propen-1-yl)-3,4-dihydro-2H,15′H-spiro[naphthalene-1,22′-[20]oxa[13]thia[1,14]diazatetracyclo [14.7.2.0~3,6~.0~19,24~]pentacosa[8,16,18,24]tetraen]-15′-one 13′,13′-dioxide], the IC50 in assay [1] (setting [5]) came to 404 nM; in assay [2] (setting [4]) it was 0.198 nM.
Turning to `CC(=O)N[C@@]1(CN2CCOCC2)CCC[C@H](C)[C@@H](C)S(=O)(=O)NC(=O)c2ccc3c(c2)N(C[C@@H]2CC[C@H]21)C[C@@]1(CCCc2cc(Cl)ccc21)CO3` [Example 100272, N-((1S,3′R,6′R,7′S,11′S,12′R)-6-chloro-11′,12′-dimethyl-7′-(4-morpholinylmethyl)-13′,13′-dioxido-15′-oxo-3,4-dihydro-2H-spiro[naphthalene-1,22′-[20]oxa[13]thia[1,14]diazatetracyclo [14.7.2.0~3,6~.0~19,24~]pentacosa[16,18,24]trien]-7′-yl)acetamide], the IC50 in assay [1] (setting [5]) worked out at 349 nM; in assay [2] (setting [4]), 0.401 nM.
Turning to `CO[C@@]1(CN2CCN3C(=O)COC[C@@H]3C2)/C=C/C[C@H](C)[C@@H](C)S(=O)(=O)NC(=O)c2ccc3c(c2)N(C[C@@H]2CC[C@H]21)C[C@@]1(CCCc2cc(Cl)ccc21)CO3` [Example 141, (1S,3′R,6′R,7′S,8′E,11′S,12′R)-6-chloro-7′-methoxy-11′,12′-dimethyl-7′-(((9aS)-4-oxohexahydropyrazino[2,1-c][1,4]oxazin-8(1H)-yl)methyl)-3,4-dihydro-2H,15′H-spiro[naphthalene-1,22′-[20]oxa[13]thia[1,14]diazatetracyclo [14.7.2.0~3,6~.0~19,24~]pentacosa[8,16,18,24]tetraen]-15′-one 13′,13′-dioxide], the IC50 in assay [1] (setting [6]) amounted to 367 nM; in assay [2] (setting [7]), 0.152 nM.
Regarding `CO[C@]1(CN2CCN3CC[C@H](F)C[C@@H]3C2)/C=C/C[C@H](C)[C@@H](C)S(=O)(=O)NC(=O)c2ccc3c(c2)N(C[C@@H]2CC[C@H]21)C[C@@]1(CCCc2cc(Cl)ccc21)CO3` (single isomer, unassigned) [Example 326], the IC50 in assay [1] (setting [8]) was found to be 488 nM; in assay [2] (setting [7]), 0.307 nM.
On to `CO[C@@]1(CN2CCOCC2)/C=C/C[C@H](C)[C@@H](C)S(=O)(=O)NC(=O)c2ccc3c(c2)N(C[C@@H]2CC[C@H]21)C[C@@]1(CCCc2cc(Cl)ccc21)CO3` [Example 52, (1S,3′R,6′R,7′S,8′E,11′S,12′R)-6-chloro-7′-methoxy-11′,12′-dimethyl-7′-(4-morpholinylmethyl)-3,4-dihydro-2H,15′H-spiro[naphthalene-1,22′-[20]oxa[13]thia[1,14]diazatetracyclo [14.7.2.0~3,6~.0~19,24~]pentacosa[8,16,18,24]tetraen]-15′-one 13′,13′-dioxide], for which the IC50 in assay [1] (setting [6]) came to 330 nM; in assay [2] (setting [7]) it was 0.522 nM.
